The assay has as its target T1, IgE-Tb / soluble IgE receptor FcεRIα with a Y131A mutation (Homo sapiens, UniProt P01854, N146Q/N252Q).
T1 construct: fused on or other part: Terbium chelate (LanthaScreen amine-reactive) on IgE-Fc; Alexa Fluor 488 hydrazide on the oxidised glycans of sFcεRIα; Both are labels and no part of the key
Description: in vitro FRET assay: binding of IgE-Tb to receptor FcεRIα-Y131A-AF488 and its inhibition by compounds. Particulars: 5 nM IgE-Tb, 25 nM FcεRIα-Y131A-AF488, 2 hours at room temperature; read-out: FRET IC50 range.
T1 sequence (P01854 104-427 N146Q/N252Q): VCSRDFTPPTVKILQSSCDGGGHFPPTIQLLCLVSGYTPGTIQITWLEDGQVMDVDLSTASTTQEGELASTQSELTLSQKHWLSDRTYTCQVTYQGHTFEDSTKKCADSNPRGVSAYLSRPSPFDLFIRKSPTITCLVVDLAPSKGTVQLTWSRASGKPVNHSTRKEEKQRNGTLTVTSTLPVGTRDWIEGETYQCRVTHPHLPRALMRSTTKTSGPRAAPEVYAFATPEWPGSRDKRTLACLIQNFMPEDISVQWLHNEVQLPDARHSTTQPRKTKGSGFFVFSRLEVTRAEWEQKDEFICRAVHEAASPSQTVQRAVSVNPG
T1 sequence (P12319 26-201 Y156A partner): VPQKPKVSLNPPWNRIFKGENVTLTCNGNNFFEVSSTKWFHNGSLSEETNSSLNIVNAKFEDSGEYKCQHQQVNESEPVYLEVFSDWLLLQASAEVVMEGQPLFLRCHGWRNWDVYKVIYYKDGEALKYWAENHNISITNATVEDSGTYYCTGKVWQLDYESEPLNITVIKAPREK
As for `CC(C)NC(=O)c1ccc(N[C@@H]2Cc3cc4cnc(C5CC5)cc4c(S(=O)(=O)NCC(C)(C)F)c3C2)cn1` [Example 77, 5-[[(7R)-3-cyclopropyl-5-[(2-fluoro-2-methylpropyl)sulfamoyl]-7,8-dihydro-6H-cyclopenta[g]isoquinolin-7-yl]amino]-N-propan-2-ylpyridine-2-carboxamide], the IC50 lay within 10 to 50 nM.

Turning to `CC(C)(F)CNS(=O)(=O)c1c2c(cc3cnc(C4CC4)cc13)CC(Nc1cncc3[nH]cnc13)C2` (centres unmarked) [Example 62, 3-cyclopropyl-N-(2-fluoro-2-methylpropyl)-7-(3H-imidazo[4,5-c]pyridin-7-ylamino)-7,8-dihydro-6H-cyclopenta[g]isoquinoline-5-sulfonamide], the IC50 was 10 to 50 nM.

`Cc1nnc(-c2ccc(NC3Cc4cc5nnc(C6CC6)cc5c(S(=O)(=O)NCC(C)(C)F)c4C3)cn2)o1` (centres unmarked) [Example 66, 3-cyclopropyl-N-(2-fluoro-2-methylpropyl)-7-[[6-(5-methyl-1,3,4-oxadiazol-2-yl)pyridin-3-yl]amino]-7,8-dihydro-6H-cyclopenta[g]cinnoline-5-sulfonamide]: the IC50 fell in the range of 10 to 50 nM.

For the molecule `CC(C)(F)CNS(=O)(=O)c1c2c(cc3cnc(C4CC4)cc13)C[C@@H](Nc1cnc(C3(O)COC3)nc1)C2` [Example 30, (7R)-3-cyclopropyl-N-(2-fluoro-2-methylpropyl)-7-[[2-(3-hydroxyoxetan-3-yl)pyrimidin-5-yl]amino]-7,8-dihydro-6H-cyclopenta[g]isoquinoline-5-sulfonamide], the IC50 was 10 to 50 nM.

Turning to `Cc1ncccc1-n1cnnc1NC1Cc2cc3cnc(C4CC4)cc3c(S(=O)(=O)NCC(C)(C)F)c2C1` (centres unmarked) [Example 78, 3-cyclopropyl-N-(2-fluoro-2-methylpropyl)-7-[[4-(2-methylpyridin-3-yl)-1,2,4-triazol-3-yl]amino]-7,8-dihydro-6H-cyclopenta[g]isoquinoline-5-sulfonamide], the IC50 fell in the range of 100 to 2000 nM.

Consider `Cn1cc(C(=O)C(=O)N[C@@H]2Cc3cc4cnc(C5CC5)cc4c(S(=O)(=O)NCC(C)(C)F)c3C2)cn1` [Example 137, N-[(7R)-3-cyclopropyl-5-[(2-fluoro-2-methylpropyl)sulfamoyl]-7,8-dihydro-6H-cyclopenta[g]isoquinolin-7-yl]-2-(1-methylpyrazol-4-yl)-2-oxoacetamide], for which the IC50 is 100 to 2000 nM.

Regarding `CC(C)(F)CNS(=O)(=O)c1c2c(cc3cnc(C4CC4)cc13)CC(Nc1cncc(S(C)(=O)=O)c1)C2` (centres unmarked) [Example 123, 3-cyclopropyl-N-(2-fluoro-2-methylpropyl)-7-[(5-methylsulfonylpyridin-3-yl)amino]-7,8-dihydro-6H-cyclopenta[g]isoquinoline-5-sulfonamide], the IC50 was in the range of 10 to 50 nM.

For `CC(C)(F)CNS(=O)(=O)c1c2c(cc3cnc(C4CC4)cc13)C[C@@H](Nc1cncc3nn(CCO)cc13)C2` [Example 106, (7R)-3-cyclopropyl-N-(2-fluoro-2-methylpropyl)-7-[[2-(2-hydroxyethyl)pyrazolo[3,4-c]pyridin-4-yl]amino]-7,8-dihydro-6H-cyclopenta[g]isoquinoline-5-sulfonamide], the IC50 is 10 to 50 nM.

Turning to `CCNC(=O)NC1CCc2c1cc1cnc(C3CC3)cc1c2S(=O)(=O)NCC(C)C` (centres unmarked) [Example 45, 1-[3-cyclopropyl-5-(2-methylpropylsulfamoyl)-7,8-dihydro-6H-cyclopenta[g]isoquinolin-8-yl]-3-ethylurea], the IC50 is 100 to 2000 nM.

As to `Cc1nnc(-c2ncc(N[C@@H]3Cc4cc5cnc(C6CC6)cc5c(S(=O)(=O)NCC(C)(C)F)c4C3)cn2)o1` [Example 129, (7R)-3-cyclopropyl-N-(2-fluoro-2-methylpropyl)-7-[[2-(5-methyl-1,3,4-oxadiazol-2-yl)pyrimidin-5-yl]amino]-7,8-dihydro-6H-cyclopenta[g]isoquinoline-5-sulfonamide], the IC50 lay within 10 to 50 nM.

With `CC(C)(F)CNS(=O)(=O)c1c2c(cc3cnc(C4CC4)cc13)CC(c1nc3c(=O)[nH]ccc3[nH]1)C2` (centres unmarked) [Example 71, 3-cyclopropyl-N-(2-fluoro-2-methylpropyl)-7-(4-oxo-1,5-dihydroimidazo[4,5-c]pyridin-2-yl)-7,8-dihydro-6H-cyclopenta[g]isoquinoline-5-sulfonamide], the IC50 lay within 50 to 100 nM.

`CC(=O)c1ccc(N[C@@H]2Cc3cc4cnc(C5CC5)cc4c(S(=O)(=O)NCC(C)(C)F)c3C2)cc1` [Example 114, (7R)-7-(4-acetylanilino)-3-cyclopropyl-N-(2-fluoro-2-methylpropyl)-7,8-dihydro-6H-cyclopenta[g]isoquinoline-5-sulfonamide]: the IC50 fell in the range of 50 to 100 nM.

On to `C[S+]([O-])c1ccc(NC2Cc3cc4cnc(C5CC5)cc4c(S(=O)(=O)NCC(C)(C)F)c3C2)cn1` (centres unmarked) [Example 139, 3-cyclopropyl-N-(2-fluoro-2-methylpropyl)-7-[(6-methylsulfinylpyridin-3-yl)amino]-7,8-dihydro-6H-cyclopenta[g]isoquinoline-5-sulfonamide], for which the IC50 lay in the range of 10 to 50 nM.

For `CC(C)(F)CNS(=O)(=O)c1c2c(cc3cnc(C4CC4)cc13)CC(n1ccnc1NCC1CC1)C2` (centres unmarked) [Example 58, 3-cyclopropyl-7-[2-(cyclopropylmethylamino)imidazol-1-yl]-N-(2-fluoro-2-methylpropyl)-7,8-dihydro-6H-cyclopenta[g]isoquinoline-5-sulfonamide], the concentration for half-maximal inhibition (IC50) is 100 to 2000 nM.

Take `COc1cc(Oc2cncc(N[C@@H]3Cc4cc5cnc(C6CC6)cc5c(S(=O)(=O)NCC(C)(C)F)c4C3)c2)ccn1` [Example 16, (7R)-3-cyclopropyl-N-(2-fluoro-2-methylpropyl)-7-[[5-(2-methoxypyridin-4-yl)oxypyridin-3-yl]amino]-7,8-dihydro-6H-cyclopenta[g]isoquinoline-5-sulfonamide]: the IC50 lay within 50 to 100 nM.

`CC(C)(F)CNS(=O)(=O)c1c2c(cc3cnc(C4CC4)cc13)C[C@@H](Nc1ccc(CO)nc1)C2` [Example 12, (7R)-3-cyclopropyl-N-(2-fluoro-2-methylpropyl)-7-[[6-(hydroxymethyl)pyridin-3-yl]amino]-7,8-dihydro-6H-cyclopenta[g]isoquinoline-5-sulfonamide]: the IC50 is 10 to 50 nM.

Turning to `Cc1ccc(S(=O)(=O)c2cncc(N[C@@H]3Cc4cc5cnc(C6CC6)cc5c(S(=O)(=O)NCC(C)(C)F)c4C3)c2)cn1` [Example 43, (7R)-3-cyclopropyl-N-(2-fluoro-2-methylpropyl)-7-[[5-(6-methylpyridin-3-yl)sulfonylpyridin-3-yl]amino]-7,8-dihydro-6H-cyclopenta[g]isoquinoline-5-sulfonamide], the IC50 lay within 10 to 50 nM.

`CC(C)(F)CNS(=O)(=O)c1c2c(cc3cnc(C4CC4)cc13)CN(c1cccnc1N)C2` [Example 51, 2-(2-aminopyridin-3-yl)-7-cyclopropyl-N-(2-fluoro-2-methylpropyl)-1,3-dihydropyrrolo[3,4-g]isoquinoline-9-sulfonamide]: the IC50 lay in the range of 100 to 2000 nM.

On to `CC(C)(F)CNS(=O)(=O)c1c2c(cc3cnc(C4CC4)cc13)CC(c1cccnc1)C2` (centres unmarked) [Example 110, 3-cyclopropyl-N-(2-fluoro-2-methylpropyl)-7-pyridin-3-yl-7,8-dihydro-6H-cyclopenta[g]isoquinoline-5-sulfonamide], for which the IC50 lay within 100 to 2000 nM.

On to `CC(C)CNS(=O)(=O)c1c2c(cc3cnc(C4CC4)cc13)CC(NS(C)(=O)=O)C2` (centres unmarked) [Example 55, 3-cyclopropyl-7-(methanesulfonamido)-N-(2-methylpropyl)-7,8-dihydro-6H-cyclopenta[g]isoquinoline-5-sulfonamide], for which the IC50 lay within 50 to 100 nM.

As usually defined, the IC50 is the concentration at which inhibition is half-maximal.

The values are drawn from patent US12577228B2, “Dihydrocyclopenta-isoquinoline-sulfonamide derivatives compounds” (UCB Biopharma SRL, priority 2019, dated 2026).
